Laboratory results published in patent US20110207751A1, “HETEROCYCLIC COMPOUNDS AND USES AS ANTICANCER AGENTS” (priority 2010, published 2011).
Structures can show the parent of a compound that is named as a salt. Where two headings read alike, the source gives them in different places.

Key:
[1] = tested on: KB cells (parental cervical cancer cell line); assay: Inhibition of cell proliferation, xCelligence cell index; format: cell-based; conditions: Homo sapiens, 72 hr post compound treatment, read-out: calculated IC50
[2] = tested on: NIH 3T3 cells (the normal tissue cell line); assay: as above; format: cell-based; conditions: Mus musculus, NIH3T3
From the text: The biological activity of compounds disclosed herein was monitored and profiled using the Real-Time Cell Electronic Sensing (RT-CES®) system from ACEA Biosciences, Inc. The RT-CES system utilizes cell-substrate impedance technology to monitor cellular behavior inside tissue culture wells in a microtiter plate format. The technology features in the integration of molecular and cell biology with microelectronics and is based on the electronic detection of biological assay process. […]
For measurement of cell-substrate or cell-electrode impedance using RT-CES technology, microelectrodes having appropriate geometries are fabricated onto the bottom surfaces of microtiter plate or similar device, facing into the wells. […] When there are changes to the biological status of the cells analogue electronic readout signals are measured automatically and in real time, and are converted to digital signals for processing and for analysis. In a RT-CES system, a cell index (arbitrary representation of change in impedance) is automatically derived and provided based on measured electrode impedance values. […]
To quantify cell status based on the measured cell-electrode impedance, a parameter termed Cell Index is derived. Cell Index is a quantitative measure of the status of the cells in an electrode-containing well. […]

[3] = tested on: A549 human non-small cell lung cancer xenograft; assay: In vivo antitumor efficacy, A549 xenograft; design: species or system BALB/c immunodeficient nude mice
From the text: To evaluate the in vivo anticancer efficacy of COMPOUND O, A549 human non-small cell lung cancer xenograft models in immunodeficient nude mice was used. The cell line and mice were maintained in the Pharmacology Lab of ACEA Bio (Hangzhou) CO., Ltd. The BALB/c immunodeficient nude mice were purchased from Shanghai SLAC Laboratory Animal, certification number: SCXKA (Shanghai) 2007-0005. The mouse weight was between 21±1 g. Only female mice were used in this study. The numbers of animals tested were as follow: 7-8 for each dose group, 6 for positive control group and 7 for negative control group.
Test Control. For negative control, each mouse was administered orally with the solvent only having the same volume and same concentration as those used in COMPOUND O test, 120 mg/kg once every other day (qod) for 25 days. For positive control, an oral anticancer compound, Etoposide was administered orally at 30 mg/kg qod for 25 days.
Preparation an Administration of Test Compounds. COMPOUND O was dissolved in 25% phospholipid (S75) and 75% polyvinylpyrrolidone (PL-PVP) then further diluted to 8 mg/ml in 0.9% NaCl aqueous solution. Each mouse was administered orally with the compound solution. Different dosages of COMPOUND O (120 mg/kg qod and 160 mg/kg q2*2 (dosing for 2 consecutive days then off for 2 consecutive days) were used in the study.
Preparation of tumor cells for transplantation and determination of compound efficacy. To prepare the cancer cells for A549 human non-small cell lung cancer xenograft model, the log phase growing cell in the flask were trypsinized and cells were re-suspended in PBS (pH 7.2) at 2.5×10^7 cells/ml. The cell suspension (5×10^6 cells) was subcutaneously injected into the auxiliary region (right-side) of each mouse. After the inoculated cancer cells grew to a tumor of certain size (50-60 mm^3) in the nude mice (about 15 days post inoculation), the mice were randomized into different dosing groups and subjected to compound treatment. Between 3-4 weeks after the first dosing, mice were sacrificed and the transplanted tumors were removed from experimental mice. Each removed solid tumor was weighed; the tumor inhibition rate in each dosage group was calculated according to equation (1) in Example 1.
All used materials including animal food, animal cage, supporting materials and apparatus contacted by animals, were high-pressure sterilized. Nude mice were maintained in laminar flow shelves under SPF condition. After tumor transplantation, mouse weight and tumor size in each compound dosage group were dynamically monitored and plotted. The tumor size was determined by measuring the major axis (a) and minor axis (b) of the tumor, and tumor volume was calculated according to the formula (2) in Example 1.

[4] = tested on: tubulin (vinblastine-binding site); assay: Spin column assay with [^3H]vinblastine; conditions: tubulin with [^3H]vinblastine and unlabeled competitor, 37° C. 1 h
Procedure: Spin column assay. […] The reaction mixtures were incubated at 37° C. for 1 h. The samples were loaded onto Illustra™ MicroSpin™ G-50 columns (GE Healthcare) previously equilibrated with the buffer solution. The columns were placed into 1.5-ml tubes and spun at 750 g for 2 min at room temperature, and radioactivity in the flow-through was analyzed by a scintillation counter.

SMILES | IC50 [1] | IC50 ([2]; NIH 3T3, 72 hr post compound treatment, read-out: calculated IC50) | IC50 ([2]; NIH-3T3, read-out: IC50) | TV inhibition rate % T/C ([3]; 120 mg/kg ig × 14 qod) | Tumor volume (mm^3) End ([3]; 120 mg/kg ig × 14 qod) | Tumor volume (mm^3) Start ([3]; 120 mg/kg ig × 14 qod) | Tumor weight (g) x ± SD ([3]; 120 mg/kg ig × 14 qod) | Tumor inhibition rate % ([3]; 120 mg/kg ig × 14 qod, by tumor weight) | TV inhibition rate % T/C ([3]; 160 mg/kg ig × 11 q2*2) | Tumor volume (mm^3) End ([3]; 160 mg/kg ig × 11 q2*2) | Tumor volume (mm^3) Start ([3]; 160 mg/kg ig × 11 q2*2) | Tumor weight (g) x ± SD ([3]; 160 mg/kg ig × 11 q2*2) | Tumor inhibition rate % ([3]; 160 mg/kg ig × 11 q2*2, by tumor weight) | amount of [^3H]vinblastine in the flow-through [4] | TV inhibition rate % T/C ([3]; 30 mg/kg ig × 13 qod) | Tumor volume (mm^3) End ([3]; 30 mg/kg ig × 13 qod) | Tumor volume (mm^3) Start ([3]; 30 mg/kg ig × 13 qod) | Tumor weight (g) x ± SD ([3]; 30 mg/kg ig × 13 qod) | Tumor inhibition rate % ([3]; 30 mg/kg ig × 13 qod, by tumor weight)
CCc1ccc(Nc2nc(-c3c(C)nc4sccn34)cs2)cc1 [COMPOUND O, 2-(4-ethylphenyl)amino-4-(6-methylimidazo[2,1-b]thiazol-5-yl)-thiazole monohydrobromide] | 0.0331 µM | 6 µM | 6 µM | 37.5% | 244 ± 105 mm^3 | 53.31 ± 24.5 mm^3 | 0.25 ± 0.08 g | 67.8% | 47.9% | 265 ± 135 mm^3 | 45.25 ± 15.9 mm^3 | 0.29 ± 0.11 g | 62.5% | neither colchicine nor COMPOUND O affected the amount of [^3H]vinblastine in the flow-through |  |  |  |  | 
COc1cc([C@@H]2c3cc4c(cc3[C@@H](O[C@@H]3O[C@@H]5CO[C@@H](C)O[C@H]5[C@H](O)[C@H]3O)[C@H]3COC(=O)[C@H]23)OCO4)cc(OC)c1O [Etoposide, reference compound] |  |  |  |  |  |  |  |  |  |  |  |  |  |  | 40.0% | 243 ± 121 mm^3 | 57.42 ± 23.5 mm^3 | 0.27 ± 0.15 g | 59.9%
CC(=O)O[C@H]1C(=O)[C@@]2(C)[C@H]([C@H](OC(=O)c3ccccc3)[C@]3(O)C[C@H](OC(=O)[C@H](O)[C@@H](NC(=O)c4ccccc4)c4ccccc4)C(C)=C1C3(C)C)[C@]1(OC(C)=O)CO[C@@H]1C[C@@H]2O [paclitaxel] | 0.00719 µM |  |  |  |  |  |  |  |  |  |  |  |  |  |  |  |  |  | 
